# Reference: patent publication US10576102B2, “KOC1-derived peptide and vaccine including same” (ONCOTHERAPY SCIENCE, INC., priority 2014, dated 2020)
# “Also recorded” adds a separate entry of the source.
# Assays:
# Format in all cases: cell-based, human
# peptide-pulsed C1R-A33 [1] = experiment: In vitro CTL induction, IFN-gamma ELISPOT assay (HLA-A*3303); details: CTLs induced with peptide-pulsed DCs from HLA-A*3303-positive volunteers, day 21, vs peptide-pulsed C1R-A33, compared with unpulsed control
# Protocol: (§1) C1R (C1R-A33) that stably expresses HLA-A*3303 was used as a stimulator cell. A cDNA encoding the open-reading frame of HLA-A*3303 was amplified by PCR and cloned into an expression vector. C1R cells were transfected with the expression vector, and then selected using G418 (Invitrogen) for two weeks. The G418-selected cells were seeded into wells containing G418-added culture medium in a 96-well plate, and further cultured for 30 days. The exogenous HLA-A*3303 expression in C1R cells was verified by flow cytometric analysis.
# (§2) Monocyte-derived dendritic cells (DCs) were used as the antigen-presenting cell to induce a cytotoxic T lymphocyte (CTL) response against peptides presented on human leukocyte antigens (HLAs). As described in the other sections, DCs were generated in vitro (Nakahara S et al., Cancer Res 2003, 63(14): 4112-8). Specifically, peripheral-blood mononuclear cells isolated from healthy volunteers (HLA-A*3303-positive) with the Ficoll-Paque plus solution (Pharmacia) were separated by attaching to plastic tissue culture dishes (Becton Dickinson) and concentrated as a monocyte fraction. The monocyte-concentrated population was cultured in the presence of 1000 IU/ml granulocyte macrophage colony-stimulating factor (R&D System) and 1000 IU/ml interleukin(IL)-4 (R&D System) in an AIM-V medium (Invitrogen) containing 2% heat-inactivated autologous serum (AS). After seven days of culturing, the cytokine-induced DCs were pulsed with 20 micro-g/ml each of the synthesized peptides in an AIM-V medium at 37 degrees C. for three hours in the presence of 3 micro-g/ml beta 2-microglobulin. The generated cells appeared to express on their cell surface DC-associated molecules such as CD80, CD83, CD86 and HLA class II (data not shown). Next, these peptide-pulsed DCs were inactivated by X-ray irradiation (20 Gy), and mixed in a 1:20 ratio with autologous CD8^+ T cells obtained by positive selection using the CD8 Positive Isolation Kit (Dynal). These culture products were seeded in a 48-well plate (Corning). Each well was made to contain 1.5×10^4 peptide-pulsed DCs, 3×10^5 CD8^+ T cells and 10 ng/ml IL-7 (R&D System) in 0.5 ml of the AIM-V/2% AS medium. Three days later, these culture products were added with a final concentration of 20 IU/ml IL-2 (CHIRON). On day 7 and day 14, T cells were further stimulated with peptide-pulsed autologous DCs. The DCs were prepared every time by the same method as above. On day 21, after the third peptide stimulation, CTLs were examined against the peptide-pulsed C1R-A33 cell by a human interferon (IFN)-gamma enzyme-linked immunospot (ELISPOT) assay (Tanaka H et al., Br J Cancer 2001, 84(1): 94-9; Umano Y et. al., Br J Cancer 2001, 84(8): 1052-7; Uchida N et al., Clin Cancer Res 2004, 10(24): 8577-86; Suda T et al., Cancer Sci 2006, 97(5): 411-9; Watanabe T et al., Cancer Sci 2005, 96(8): 498-506).
# (§3) Specifically, peptide-pulsed C1R-A33 (1×10^4 cells/well) was prepared as the stimulator cell. The induced CTLs, i.e., CTL lines and CTL clones, were used as the responder cell. The IFN-gamma ELISPOT assay and IFN-gamma ELISA were performed according to the manufacturer's manual.
# peptide-pulsed C1R-A01 = experiment: In vitro CTL induction, IFN-gamma ELISPOT assay (HLA-A*0101); details: CTLs induced with peptide-pulsed DCs from HLA-A*0101-positive volunteers, day 21, vs peptide-pulsed C1R-A01, compared with unpulsed control
# Protocol: as §1, with “(C1R-A01)” for “(C1R-A33)”, “HLA-A*0101” for “HLA-A*3303”
# as §2, with “(HLA-A*0101-positive)” for “(HLA-A*3303-positive)”, “2-microglobulin.” for “2-microglobulin. The generated cells appeared to express on their cell surface DC-associated molecules such as CD80, CD83, CD86 and HLA class II (data not shown).”, “CTL activities” for “CTLs”, “C1R-A01 cells” for “C1R-A33 cell by a human interferon (IFN)-gamma enzyme-linked immunospot (ELISPOT) assay”, “et” for “et.”
# Specifically, peptide-pulsed C1R-A01 (1×10^4 cells/well) was prepared as the stimulator cell. The induced CTLs, i.e., CTL lines and CTL clones, were used as the responder cell. The IFN-gamma ELISPOT assay and IFN-gamma ELISA were performed according to the manufacturer's manual.
# peptide-pulsed C1R-A33 [2] = experiment: IFN-gamma ELISA of CTL lines and CTL clones (HLA-A*3303); details: for IFN-gamma production of CTL clones, ELISA: CTL clones by limiting dilution, peptide-pulsed C1R-A33; for IFN-gamma production of CTL lines, ELISA: target cells pulsed with the peptide vs not pulsed, C1R-A33
# Protocol: CTLs were propagated in culture using methods similar to those disclosed by Riddell et al. (Walter E A et al., N Engl J Med 1995, 333(16): 1038-44; Riddell S R et al., Nat Med 1996, 2(2): 216-23). The CTLs were co-cultured in a total of 25 ml AIM-V medium containing 5% AS (AIM-V/5% AS) and 40 ng/ml anti-CD3 antibody with two types of Mitomycin C-treated human B lymphoblastoid cell lines at 5×10^6 cells/flask. One day after beginning of the culturing, 120 IU/ml IL-2 was added to the culture. On days 5, 8 and 11, a fresh AIM-V/5% AS medium containing 30 IU/ml IL-2 was added to the culture (Tanaka H et al., Br J Cancer 2001, 84(1): 94-9; Umano Y et al., Br J Cancer 2001, 84(8): 1052-7; Uchida N et al., Clin Cancer Res 2004, 10(24): 8577-86; Suda T et al., Cancer Sci 2006, 97(5): 411-9; Watanabe T et al., Cancer Sci 2005, 96(8): 498-506).
# Dilution of CTLs was carried out to make 0.3, 1 and 3 cells/well in 96 round-bottomed microtiter plates (Nalge Nunc International). The CTLs were co-cultured with two types of Mitomycin C-treated human B lymphoblastoid cell lines at 1×10^4 cells/well in a total of 150 micro-1/well AIM-V/5% AS medium with 30 ng/ml anti-CD3 antibody and 125 IU/ml IL-2. Ten days later, IL-2 was added to the medium at 50 micro-1/well to reach a final concentration of 125 IU/ml. On day 14, the CTL activity was tested, and the CTL clones were propagated using the same method as described above (Uchida N et al., Clin Cancer Res 2004, 10(24): 8577-86; Suda T et al., Cancer Sci 2006, 97(5): 411-9; Watanabe T et al., Cancer Sci 2005, 96(8): 498-506).
# as §3
Sequence,"peptide-specific CTL activity (IFN-gamma production), ELISPOT (peptide-pulsed C1R-A33 [1])","peptide-specific CTL activity (IFN-gamma production), ELISPOT (peptide-pulsed C1R-A01)",also measured
ELTLYNPER (a peptide derived from KOC1) [SEQ ID NO: 63],potent IFN-gamma production,–,–
ETETVHLFI (a peptide derived from KOC1) [SEQ ID NO: 90],–,potent IFN-gamma production,–
FYACQVAQR (a peptide derived from KOC1) [SEQ ID NO: 61],potent IFN-gamma production,–,"IFN-gamma production of CTL clones, ELISA (peptide-pulsed C1R-A33 [2]; listed as KOC1-A33-9-543): Potent IFN-gamma production; IFN-gamma production of CTL lines, ELISA (peptide-pulsed C1R-A33 [2]): potent IFN-gamma production"
FYACQVAQRK (a peptide derived from KOC1) [SEQ ID NO: 79],potent IFN-gamma production,–,–
ISPLQELTLY (a peptide derived from KOC1) [SEQ ID NO: 46],–,potent IFN-gamma production,–
LAHNNFVGR (a peptide derived from KOC1) [SEQ ID NO: 62],potent IFN-gamma production,–,"IFN-gamma production of CTL clones, ELISA (peptide-pulsed C1R-A33 [2]; listed as KOC1-A33-9-282): Potent IFN-gamma production; IFN-gamma production of CTL lines, ELISA (peptide-pulsed C1R-A33 [2]): potent IFN-gamma production"
LVKTGYAFV (a peptide derived from KOC1) [SEQ ID NO: 74],potent IFN-gamma production,–,–
NNFVGRLIGK (a peptide derived from KOC1) [SEQ ID NO: 85],potent IFN-gamma production,–,–
QGQHIKQLSR (a peptide derived from KOC1) [SEQ ID NO: 80],potent IFN-gamma production,–,–
QSETETVHL (a peptide derived from KOC1) [SEQ ID NO: 92],–,potent IFN-gamma production,–
QSETETVHLF (a peptide derived from KOC1) [SEQ ID NO: 95],–,potent IFN-gamma production,–
SSAEVVVPR (a peptide derived from KOC1) [SEQ ID NO: 4],–,–,"peptide-specific CTL activity (IFN-gamma production), ELISPOT (peptide-pulsed C1R-A33 [1]; listed as KOC1-A33-9-517): no specific IFN-gamma production; also recorded: specific IFN-gamma production was not observed"
VVKITGHFY (a peptide derived from KOC1) [SEQ ID NO: 13],–,–,"peptide-specific CTL activity (IFN-gamma production), ELISPOT (peptide-pulsed C1R-A01; listed as KOC1-A01-9-536): no specific IFN-gamma production; also recorded: specific IFN-gamma production was not observed"
VVVKITGHFY (a peptide derived from KOC1) [SEQ ID NO: 41],–,potent IFN-gamma production,–
